A short description of data set [1]: in vitro. Type of data set: cell-based. To be noted: human. As to the method:
Huh7 hepatoblastoma cells were seeded onto 96-well plates and incubated at 37° C. with 5% CO2 overnight. The plates were seeded at a cell concentration that will yield >70% confluent monolayers in each well after overnight incubation. Eight 3-fold serial dilutions of compounds were diluted in test media (MEM supplemented with 2% FBS and 50 μg/mL gentamicin). The highest test compound concentration was 50 μg/mL. 100 μL of each concentration was added to 5 test wells on the 96-well plate. Of these 5 test wells, 3 wells of each dilution were infected with dengue virus type 2, diluted in test media (approximately 2000 CCID50 per well for an MOI of 0.07). Test medium (100 μL) with no virus was added to 2 wells to represent the uninfected cytotoxicity controls. Six additional infected wells received 100 μL media alone as untreated virus controls. Further, 100 μL of media alone was added to 6 uninfected wells to serve as uninfected, untreated controls. Cultures were incubated at 37° C.+5% CO2 until >80% CPE is observed. After cytopathic effect (CPE) is observed microscopically, 0.011% neutral red dye was added for approximately 2 hours. The neutral red dye was removed and wells were rinsed once with PBS to remove residual, unincorporated dye. A 50:50 Sorensen citrate buffer/ethanol solution was added and incubated at room temperature for >30 minutes with agitation, followed by measurement of neutral red dye using a spectrophotometer at 540 nm. The resulting optical density measurement was converted to percent signal of the infected, untreated cell control normalizing to virus controls. EC50 and CC50 values were determined by linear regression analysis.

The nature of data set [2]: in vitro. The settings on record: human. Type of data set: cell-based. As to the method:
H1-HeLa cell viability was measured using the CellTiter-Glo® Luminescent Cell Viability Assay kit (Promega, Cat #G7573) according to the manufacturer's protocol. H1-HeLa cells were maintained in Dulbecco's Modified Eagle's Medium with high glucose (Gibco, Cat #: 11995073) supplemented with 10% FBS (HyClone, Cat #: SH303396.03), 100 units/mL penicillin and 100 µg/mL streptomycin (Gibco, Cat #: 15140122). One day before compound treatment, H1-HeLa cells were seeded at […] into 96-well plates (Corning, Cat #3904) in Opti-MEM (Gibco, Cat #: 31985070) supplemented with 2% FBS, and were incubated at 37° C. in a 100% humid atmosphere containing 5% (v/v) CO2. After overnight incubation, the cells were treated with three-fold serial dilutions of the compound. At 96 hours post treatment, CellTiter-Glo reagents were added into each well and luminescence signals were recorded by an EnVision plate reader. The relative cell viability was calculated by normalizing the absorbance of the compound-treated groups to that of the DMSO-treated groups (set as 100% viability) and 10 μM puromycin treated groups (set as 0% viability). The CC50 (compound concentration for reducing 50% of cell viability) was calculated using a nonlinear regression model (four parameters).
The source holds these as a separate data set.

Results on 13 compounds are retold here after patent US20250034182A1, “PHOSPHOLIPID COMPOUNDS AND METHODS OF MAKING AND USING THE SAME” (priority 2021, published 2025).

Where only a bound is given, the exact number is not on record here.

Consider `CCCCCCCCCCCCCCCCCCOC[C@H](COP(=O)(O)OC[C@@]1(C#N)O[C@@H](c2ccc3c(N)ncnn23)[C@H](O)[C@@H]1O)OCc1ccc(C#N)c(-n2cncn2)c1` [Compound 16, ((2R,3S,4R,5S)-5-(4-aminopyrrolo[2,1-f][1,2,4]triazin-7-yl)-2-cyano-3,4-dihydroxytetrahydrofuran-2-yl)methyl ((R)-2-((4-cyano-3-(1H-1,2,4-triazol-1-yl)benzyl)oxy)-3-(octadecyloxy)propyl) hydrogen phosphate], for which half-maximal cytotoxicity in “in vitro [1]” (CC50) was put at 24 µM.

As for `CCCCCCCCCCCCCCCCCCOC[C@H](COP(=O)(O)OC[C@@]1(C#N)O[C@@H](c2ccc3c(N)ncnn23)[C@H](O)[C@@H]1O)OCc1ccc(C#N)nc1` [Compound 19, ((2R,3S,4R,5S)-5-(4-aminopyrrolo[2,1-f][1,2,4]triazin-7-yl)-2-cyano-3,4-dihydroxytetrahydrofuran-2-yl)methyl ((R)-2-((6-cyanopyridin-3-yl)methoxy)-3-(octadecyloxy)propyl) hydrogen phosphate], in the data set “in vitro [1]”, the midpoint of cytotoxicity, the CC50, lay at 25 µM. This CC50 and that of the compound before are within 1.5-fold of each other.

For the compound `CCCCCCCCCCCCCCCCCCOC[C@H](COP(=O)(O)OC[C@@]1(C#N)O[C@@H](c2ccc3c(N)ncnn23)[C@H](O)[C@@H]1O)Oc1ccc(C#N)c(OC(C)C)c1` [Compound 23, ((2R,3S,4R,5S)-5-(4-aminopyrrolo[2,1-f][1,2,4]triazin-7-yl)-2-cyano-3,4-dihydroxytetrahydrofuran-2-yl)methyl ((R)-2-(4-cyano-3-isopropoxyphenoxy)-3-(octadecyloxy)propyl) hydrogen phosphate], the CC50 – broadly, the concentration that lowers cell viability or growth by half – at 96 h in the data set “in vitro [2]” is 10.8 µM. The compound further yielded a CC50 in the data set “in vitro [1]” of 26 µM.

As to `CCCCCCCCCCCCCCCCCCC[C@H](COP(=O)(O)OC[C@@]1(C#N)O[C@@H](c2ccc3c(N)ncnn23)[C@H](O)[C@@H]1O)OCc1cc(F)cc(C#N)c1` [Compound 25, ((2R,3S,4R,5S)-5-(4-aminopyrrolo[2,1-f][1,2,4]triazin-7-yl)-2-cyano-3,4-dihydroxytetrahydrofuran-2-yl)methyl ((R)-2-((3-cyano-5-fluorobenzyl)oxy)henicosyl) hydrogen phosphate], in “in vitro [2]”, half-maximal cytotoxicity (CC50 at 96 h) was put at 8.49 µM. In addition, it took 13 µM to reach half-maximal cytotoxicity in the data set “in vitro [1]” (CC50).

In the case of `CCCCCCCCCCCCCCCCCCC[C@H](COP(=O)(O)OC[C@@]1(C#N)O[C@@H](c2ccc3c(N)ncnn23)[C@H](O)[C@@H]1O)OCc1ccc(C#N)c(OC(C)C)c1` [Compound 28, ((2R,3S,4R,5S)-5-(4-aminopyrrolo[2,1-f][1,2,4]triazin-7-yl)-2-cyano-3,4-dihydroxytetrahydrofuran-2-yl)methyl ((R)-2-((4-cyano-3-isopropoxybenzyl)oxy)henicosyl) hydrogen phosphate], the CC50 at 96 h in the data set “in vitro [2]” worked out at 9.9 µM. Further, in the data set “in vitro [1]”, the CC50 came out at 19 µM.

`CCCCCCCCCCCCCCCCCCCC[C@H](COP(=O)(O)OC[C@@]1(C#N)O[C@@H](c2ccc3c(N)ncnn23)[C@H](O)[C@@H]1O)OCc1cc(F)cc(C#N)c1` [Compound 34, ((2R,3S,4R)-5-(4-aminopyrrolo[2,1-f][1,2,4]triazin-7-yl)-2-cyano-3,4-dihydroxytetrahydrofuran-2-yl)methyl ((R)-2-((3-cyano-5-fluorobenzyl)oxy)docosyl) hydrogen phosphate] gave a CC50 at 96 h in “in vitro [2]” of 4.69 µM. For the same compound, the CC50 in “in vitro [1]” worked out at 15 µM.

As to `CCCCCCCCCCCCCCCCCCC[C@H](COP(=O)(O)OC[C@@]1(C#N)O[C@@H](c2ccc3c(N)ncnn23)[C@H](O)[C@@H]1O)Oc1ccc(C#N)c(OC(C)C)c1` [Compound 38, ((2R,3S,4R,5S)-5-(4-aminopyrrolo[2,1-f][1,2,4]triazin-7-yl)-2-cyano-3,4-dihydroxytetrahydrofuran-2-yl)methyl ((R)-2-(4-cyano-3-isopropoxyphenoxy)henicosyl) hydrogen phosphate], in the data set “in vitro [2]”, the CC50 at 96 h worked out at 6.19 µM. In addition, the CC50 in the data set “in vitro [1]” worked out at 5.8 µM.

In the case of `CCCCCCCCCCCCCCCCCCC[C@H](COP(=O)(O)OC[C@@]1(C#N)O[C@@H](c2ccc3c(N)ncnn23)[C@H](O)[C@@H]1O)Oc1cc(OC)c(C#N)c(OC)c1` [Compound 39, ((2R,3S,4R,5S)-5-(4-aminopyrrolo[2,1-f][1,2,4]triazin-7-yl)-2-cyano-3,4-dihydroxytetrahydrofuran-2-yl)methyl ((R)-2-(4-cyano-3,5-dimethoxyphenoxy)henicosyl) hydrogen phosphate], the CC50 in “in vitro [1]” stood at 14 µM.

`CCCCCCCCCCCCCCCCCCOCC(COc1cc(F)cc(C#N)c1)COP(=O)(O)OC[C@@]1(C#N)O[C@@H](c2ccc3c(N)ncnn23)[C@H](O)[C@@H]1O` (stereo partly drawn) [Compound 43, ((2R,3S,4R,5S)-5-(4-aminopyrrolo[2,1-f][1,2,4]triazin-7-yl)-2-cyano-3,4-dihydroxytetrahydrofuran-2-yl)methyl (3-(3-cyano-5-fluorophenoxy)-2-((octadecyloxy)methyl)propyl) hydrogen phosphate] displayed a CC50 at 96 h in “in vitro [2]” of 4 µM. This compound also returned a CC50 in the data set “in vitro [1]” of 14 µM.

The compound `CCCCCCCCCCCCCCOC[C@H](COP(=O)(O)OC[C@@]1(C#N)O[C@@H](c2ccc3c(N)ncnn23)[C@H](O)[C@@H]1O)OCc1ccc(C#N)cc1F` [Compound 75, ((2R,3S,4R,5S)-5-(4-aminopyrrolo[2,1-f][1,2,4]triazin-7-yl)-2-cyano-3,4-dihydroxytetrahydrofuran-2-yl)methyl ((R)-2-((4-cyano-2-fluorobenzyl)oxy)-3-(tetradecyloxy)propyl) hydrogen phosphate] came in with a CC50 in “in vitro [1]” of more than 50 µM.

In the case of `CCCCCCCCCCCCCCCCC[C@H](COP(=O)(O)OC[C@@]1(C#N)O[C@@H](c2ccc3c(N)ncnn23)[C@H](O)[C@@H]1O)OCc1cc(Cl)cc(C#N)c1` [Compound 76, ((2R,3S,4R)-5-(4-aminopyrrolo[2,1-f][1,2,4]triazin-7-yl)-2-cyano-3,4-dihydroxytetrahydrofuran-2-yl)methyl ((R)-2-((3-chloro-5-cyanobenzyl)oxy)nonadecyl) hydrogen phosphate], the CC50 at 96 h in “in vitro [2]” was found to be 6.39 µM.

`CCCCCCCCCCCCCCCCCC[C@H](COP(=O)(O)OC[C@@]1(C#N)O[C@@H](c2ccc3c(N)ncnn23)[C@H](O)[C@@H]1O)OCc1cc(F)cc(C#N)c1` [Compound 84, ((2R,3S,4R,5S)-5-(4-aminopyrrolo[2,1-f][1,2,4]triazin-7-yl)-2-cyano-3,4-dihydroxytetrahydrofuran-2-yl)methyl ((R)-2-((3-cyano-5-fluorobenzyl)oxy)icosyl) hydrogen phosphate]: in “in vitro [2]”, the CC50 at 96 h came out at 1.82 µM.

`CCCCCCCCCCCCCCCCOC[C@@H](COP(=O)(O)OC[C@@]1(C#N)O[C@@H](c2ccc3c(N)ncnn23)[C@H](O)[C@@H]1O)OCc1cc(F)cc(C#N)c1` [Compound 88, ((2R,3S,4R,5S)-5-(4-aminopyrrolo[2,1-f][1,2,4]triazin-7-yl)-2-cyano-3,4-dihydroxytetrahydrofuran-2-yl)methyl ((S)-2-((3-cyano-5-fluorobenzyl)oxy)-3-(hexadecyloxy)propyl) hydrogen phosphate]: in “in vitro [2]”, it took 2.21 µM to reach half-maximal cytotoxicity (CC50 at 96 h). This CC50 at 96 h and that of the compound before are within 1.5-fold of each other.
